Drawing on publication PMC6934184, “Selective DNA-PKcs inhibition extends the therapeutic index of localized radiotherapy and chemotherapy” (The Journal of Clinical Investigation, 2019), this text covers inhibition for 1 compound.

This assay concerns the target T1, DYRK3 (Homo sapiens, UniProt O43781).
T1 construct: purchased Thermo Fisher Scientific (Life Technologies) SelectScreen
The assay can be described thus: SelectScreen Z'LYTE. In kind it is biochemical. Summed up:
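NU5455 was profiled across the SelectScreen Broad panel of kinase activity and binding assays. Z'LYTE reactions such as CSF1R ran at apparent Km ATP, while the Adapta CAMK1 assay used ATP listed as 10. Values are given as percent.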

T1 sequence (O43781 whole entry): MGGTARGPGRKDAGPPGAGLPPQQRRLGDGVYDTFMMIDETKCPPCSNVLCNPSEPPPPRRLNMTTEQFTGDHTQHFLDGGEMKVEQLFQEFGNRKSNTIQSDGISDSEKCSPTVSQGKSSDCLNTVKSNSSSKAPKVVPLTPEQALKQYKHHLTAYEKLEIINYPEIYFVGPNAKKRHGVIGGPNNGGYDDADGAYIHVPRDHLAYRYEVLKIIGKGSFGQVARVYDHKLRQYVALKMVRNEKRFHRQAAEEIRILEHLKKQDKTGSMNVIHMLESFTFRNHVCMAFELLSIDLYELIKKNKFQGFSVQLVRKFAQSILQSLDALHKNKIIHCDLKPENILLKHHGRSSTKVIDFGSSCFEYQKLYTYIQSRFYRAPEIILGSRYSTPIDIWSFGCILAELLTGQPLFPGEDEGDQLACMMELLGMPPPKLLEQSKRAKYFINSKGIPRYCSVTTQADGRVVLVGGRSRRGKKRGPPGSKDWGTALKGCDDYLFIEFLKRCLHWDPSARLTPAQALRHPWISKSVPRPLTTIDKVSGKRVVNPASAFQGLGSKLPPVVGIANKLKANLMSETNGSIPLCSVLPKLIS

The inhibition is the drop in the measured response relative to a control, in per cent. Low readings indicate little suppression, high ones strong suppression. `CN(C(=O)CN1CCOCC1)c1ccc2sc3c(-c4cccc5c(=O)cc(N6CC7CCC(C6)O7)oc45)cccc3c2c1` [NU5455] returned an inhibition at 1 µM of 2.6%.
